Source: patent US20170000749A1, “Methods for Treating Cognitive Disorders Using Inhibitors of Histone Deacetylase” (Forum Pharmaceuticals, Inc., priority 2008, published 2017)
Read-outs that look alike come from different tables or passages of the source.

Legend:
[1] = target: one or more of HDAC-1, HDAC-2, HDAC-3, HDAC-4, HDAC-5, HDAC-6, HDAC-7, HDAC-8, HDAC-9, HDAC-10 and HDAC-11; test: Inhibition of Histone Deacetylase Enzymatic Activity (Boc-Lys(Ac)-AMC substrate, Fluor-de-Lys developer); type: biochemical; settings: read-out: HDAC Inhibition (IC50 μM) HDAC Enzyme
Method: The following protocol is used to assay the compounds of the disclosure.
The mixture is pre-incubated for 5 minutes at room temperature. The reaction is started by bringing the temperature to 37° C. and adding 16 μl substrate. Total reaction volume is 50 μl.
In the Tables 8, 9 and 10, A≦0.05 μM; 0.05 μM<B≦0.1 μM; 0.1 μM<C≦1 μM; and 1 μM<D≦10 μM.

[2] = tested on: HDAC activity in primary mouse cortical cultures; test: Whole-Cell Histone Deacetylase (HDAC) Inhibition Assay in Primary Mouse Cortical Cultures; type: cell-based
How it was run: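 Primary neocortical neurons from E17 Balb/C mouse embryos were plated at 50000 cells/well and treated at DIV9 with ten-point DMSO dilutions for 16-18 h at 37° C, in triplicate. BOC-Lys(Ac)-AMC substrate was then added for 1 h. Fluor de Lys developer containing 1 uM TSA produced a fluorophore, which was read.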

[3] = whole-cell (WC), mouse cortical neurons, Table 10, read-out: HDAC Inhibition (IC50 μM) WC mouse cortical neurons
[4] = whole-cell (WC), mouse cortical neurons, Table 8, read-out: HDAC Inhibition (IC50 μM) WC mouse cortical neurons
[5] = whole-cell (WC), mouse cortical neurons, Table 9, read-out: HDAC Inhibition (IC50 μM) WC mouse cortical neurons

In the case of `O=C(NO)c1ccc(CN2C(=O)c3ccccc3CCc3ccccc32)cc1` [N-hydroxy-4-((6-oxo-11,12-dihydrodibenzo[b,f]azocin-5(6H)-yl)methyl)benzamide], the IC50 ([1]; Table 10) is reported as 0.1 to 1 µM and the IC50 [2, 3] is reported as 1 to 5 µM.

Molecule `O=C(NO)c1ccc(C2=Nc3ccccc3Oc3c(F)cccc32)cc1` [(Z)-4-(4-fluorodibenzo[b,f][1,4]oxazepin-11-yl)-N-hydroxybenzamide] has an IC50 ([1]; Table 8) of 0.1 to 1 µM and an IC50 [2, 4] of 5 to 15 µM.

With `O=C(CCCCCCCN1C(=O)c2cccnc2N(C2CC2)c2ccccc21)NO` [8-(11-cyclopropyl-5-oxo-5H-benzo[b]pyrido[2,3-e][1,4]diazepin-6(11H)-yl)-N-hydroxyoctanamide] the IC50 ([1]; Table 10) was 0.1 to 1 µM and the IC50 [2, 3] was < 1 µM.

For `CC(C)COC(=O)N1C[C@@H]2C[C@H]1CN2c1ncc(C(=O)NO)cn1` [(1S,4S)-isobutyl 5-(5-(hydroxycarbamoyl)pyrimidin-2-yl)-2,5-diazabicyclo[2.2.1]heptane-2-carboxylate], the IC50 ([1]; Table 9) was < 0.05 µM and the IC50 [2, 5] was < 1 µM.

For `O=C(CCCN1c2ccccc2C=Cc2ccccc21)NO` [(Z)-4-(5H-dibenzo[b,f]azepin-5-yl)-N-hydroxybutanamide], the IC50 ([1]; Table 10) was 1 to 10 µM and the IC50 [2, 3] was 5 to 15 µM.

`O=C(NO)c1ccc(N2C[C@@H]3C[C@H]2CN3c2cccc(C(F)(F)F)c2)nn1` [N-hydroxy-6-((1S,4S)-5-(3-(trifluoromethyl)phenyl)-2,5-diazabicyclo[2.2.1]heptan-2-yl)pyridazine-3-carboxamide] showed an IC50 ([1]; Table 9) of 0.1 to 1 µM and an IC50 [2, 5] of 5 to 15 µM.

`O=C(NO)c1ccc(OCCN2C(=O)c3ccccc3Oc3ccccc32)cc1` was tested, and the IC50 ([1]; Table 10) was < 0.05 µM and the IC50 [2, 3] was < 1 µM.

For `O=C(NO)c1ccc(C2=Nc3ccccc3Oc3cc(C(F)(F)F)ccc32)cc1` [(Z)—N-hydroxy-4-(3-(trifluoromethyl)dibenzo[b,f][1,4]oxazepin-11-yl)benzamide], the IC50 ([1]; Table 8) was 0.05 to 0.1 µM and the IC50 [2, 4] was > 15 µM.

Work on `O=C(CCCON=C1c2ccccc2CCc2ccccc21)NO` yielded an IC50 ([1]; Table 10) of 0.1 to 1 µM and an IC50 [2, 3] of 5 to 15 µM.

In the case of `O=C(NO)c1cnc(N2C[C@@H]3C[C@H]2CN3c2ccc3nonc3c2)nc1` [2-((1S,4S)-5-(benzo[c][1,2,5]oxadiazol-5-yl)-2,5-diazabicyclo[2.2.1]heptan-2-yl)-N-hydroxypyrimidine-5-carboxamide], the IC50 ([1]; Table 9) is reported as < 0.05 µM and the IC50 [2, 5] is reported as < 1 µM.

In the case of `O=C(NO)c1ccc(C2=Nc3ccc(C(F)(F)F)cc3Oc3ccccc32)cc1` [(Z)—N-hydroxy-4-(7-(trifluoromethyl)dibenzo[b,f][1,4]oxazepin-11-yl)benzamide], the IC50 ([1]; Table 8) is reported as 0.1 to 1 µM and the IC50 [2, 4] is reported as > 15 µM.

With `Cc1ccccc1N1C[C@@H]2C[C@H]1CN2c1ncc(C(=O)NO)cn1` [N-hydroxy-2-((1S,4S)-5-o-tolyl-2,5-diazabicyclo[2.2.1]heptan-2-yl)pyrimidine-5-carboxamide] the IC50 ([1]; Table 9) was 0.05 to 0.1 µM and the IC50 [2, 5] was 1 to 5 µM.

`CSc1cccc2c1Oc1ccccc1N=C2c1ccc(C(=O)NO)cc1` [(Z)—N-hydroxy-4-(4-(methylthio)dibenzo[b,f][1,4]oxazepin-11-yl)benzamide] was tested, and the IC50 ([1]; Table 8) was < 0.05 µM and the IC50 [2, 4] was 1 to 5 µM.

In the case of `O=C(NO)c1cccc(C2=Nc3ccccc3Oc3ccccc32)c1` [(Z)-3-(dibenzo[b,f][1,4]oxazepin-11-yl)-N-hydroxybenzamide], the IC50 ([1]; Table 8) is reported as 0.1 to 1 µM and the IC50 [2, 4] is reported as > 15 µM.

For `O=C(/C=C/c1ccc2c(c1)C=Cc1ccccc1N2CC1CC1)NO` [(E)-3-((Z)-5-(cyclopropylmethyl)-5H-dibenzo[b,f]azepin-2-yl)-N-hydroxyacrylamide], the IC50 ([1]; Table 10) was 0.1 to 1 µM and the IC50 [2, 3] was 5 to 15 µM.

In the case of `O=C(CCCCCN1C(=O)c2cccnc2N(C2CC2)c2ccccc21)NO` [6-(11-cyclopropyl-5-oxo-5H-benzo[b]pyrido[2,3-e][1,4]diazepin-6(11H)-yl)-N-hydroxyhexanamide], the IC50 ([1]; Table 10) is reported as 0.1 to 1 µM and the IC50 [2, 3] is reported as 1 to 5 µM.

Molecule `O=C(NO)c1cnc(N2C[C@@H]3C[C@H]2CN3c2cccc(C(F)(F)F)c2)cn1` [N-hydroxy-5-((1S,4S)-5-(3-(trifluoromethyl)phenyl)-2,5-diazabicyclo[2.2.1]heptan-2-yl)pyrazine-2-carboxamide] has an IC50 ([1]; Table 9) of 0.1 to 1 µM and an IC50 [2, 5] of 5 to 15 µM.

For `O=C(NO)c1cnc(N2C[C@@H]3C[C@H]2CN3c2nccc(C(F)(F)F)n2)nc1` [N-hydroxy-2-((1S,4S)-5-(4-(trifluoromethyl)pyrimidin-2-yl)-2,5-diazabicyclo[2.2.1]heptan-2-yl)pyrimidine-5-carboxamide], the IC50 ([1]; Table 9) was < 0.05 µM and the IC50 [2, 5] was < 1 µM.

For `O=C(NO)c1cnc(N2C[C@@H]3C[C@H]2CN3c2ccc(C(F)(F)F)cc2F)nc1` [2-((1S,4S)-5-(2-fluoro-4-(trifluoromethyl)phenyl)-2,5-diazabicyclo[2.2.1]heptan-2-yl)-N-hydroxypyrimidine-5-carboxamide], the IC50 ([1]; Table 9) was < 0.05 µM and the IC50 [2, 5] was 1 to 5 µM.

For `O=C(NO)c1cnc(NCC2c3ccccc3CCc3ccccc32)nc1`, the IC50 ([1]; Table 10) was < 0.05 µM and the IC50 [2, 3] was 5 to 15 µM.

For `O=C(CCCCCCN1C(=O)c2ccccc2Sc2ccccc21)NO` [N-hydroxy-7-(11-oxodibenzo[b,f][1,4]thiazepin-10(11H)-yl)heptanamide], the IC50 ([1]; Table 10) was < 0.05 µM and the IC50 [2, 3] was < 1 µM.

Molecule `O=C(NO)c1ccc(N2C[C@H]3C[C@@H]2CN3c2cc(C(F)(F)F)ccn2)cc1` [N-hydroxy-4-((1R,4R)-5-(4-(trifluoromethyl)pyridin-2-yl)-2,5-diazabicyclo[2.2.1]heptan-2-yl)benzamide] has an IC50 ([1]; Table 9) of 1 to 10 µM and an IC50 [2, 5] of 5 to 15 µM.

`O=C(CCCCCCC(=O)NC1c2ccccc2C=Cc2ccccc21)NO` showed an IC50 ([1]; Table 10) of 0.1 to 1 µM and an IC50 [2, 3] of 1 to 5 µM.

`Cc1ccc(N2C[C@@H]3C[C@H]2CN3c2ncc(C(=O)NO)cn2)cc1` [N-hydroxy-2-((1S,4S)-5-p-tolyl-2,5-diazabicyclo[2.2.1]heptan-2-yl)pyrimidine-5-carboxamide] was tested, and the IC50 ([1]; Table 9) was < 0.05 µM and the IC50 [2, 5] was < 1 µM.

With `CC(C)N1c2ccccc2N=C(c2ccc(C(=O)NO)cc2)c2cccnc21` [(Z)-N-hydroxy-4-(11-isopropyl-11H-benzo[b]pyrido[2,3-e][1,4]diazepin-5-yl)benzamide] the IC50 ([1]; Table 8) was < 0.05 µM and the IC50 [2, 4] was < 1 µM.

For `O=C(NO)c1cnc(N2C[C@@H]3C[C@H]2CN3c2cccc(OC(F)(F)F)c2)nc1` [N-hydroxy-2-((1S,4S)-5-(3-(trifluoromethoxy)phenyl)-2,5-diazabicyclo[2.2.1]heptan-2-yl)pyrimidine-5-carboxamide], the IC50 ([1]; Table 9) was < 0.05 µM and the IC50 [2, 5] was < 1 µM.

Molecule `O=C(NO)c1cnc(N2C[C@@H]3C[C@H]2CN3)nc1` [2-((1S,4S)-2,5-diazabicyclo[2.2.1]heptan-2-yl)-N-hydroxypyrimidine-5-carboxamide] has an IC50 ([1]; Table 9) of 0.1 to 1 µM and an IC50 [2, 5] of 5 to 15 µM.

With `COc1cc(F)cc2c1Oc1ccccc1N=C2c1ccc(C(=O)NO)cc1` [(Z)-4-(2-fluoro-4-methoxydibenzo[b,f][1,4]oxazepin-11-yl)-N-hydroxybenzamide] the IC50 ([1]; Table 8) was < 0.05 µM and the IC50 [2, 4] was 1 to 5 µM.

With `O=C(NO)c1cnc(N2CC3CC2CO3)nc1` (centres unmarked) [2-(2-oxa-5-azabicyclo[2.2.1]heptan-5-yl)-N-hydroxypyrimidine-5-carboxamide] the IC50 ([1]; Table 9) was 0.1 to 1 µM and the IC50 [2, 5] was 1 to 5 µM.

For `O=C(CCn1cc(CN2C(=O)c3ccccc3Oc3ccccc32)nn1)NO` [N-hydroxy-3-(4-((11-oxodibenzo[b,f][1,4]oxazepin-10(11H)-yl)methyl)-1H-1,2,3-triazol-1-yl)propanamide], the IC50 ([1]; Table 10) was 0.1 to 1 µM and the IC50 [2, 3] was 1 to 5 µM.

Work on `O=C(NO)c1cnc(N2C[C@@H]3C[C@H]2CN3Cc2ccccc2)nc1` [2-((1S,4S)-5-benzyl-2,5-diazabicyclo[2.2.1]heptan-2-yl)-N-hydroxypyrimidine-5-carboxamide] yielded an IC50 ([1]; Table 9) of 0.1 to 1 µM and an IC50 [2, 5] of 1 to 5 µM.

`CCN1c2ccccc2N=C(c2ccc(C(=O)NO)cc2)c2cccnc21` [(Z)-4-(11-ethyl-11H-benzo[b]pyrido[2,3-e][1,4]diazepin-5-yl)-N-hydroxybenzamide] was tested, and the IC50 ([1]; Table 8) was < 0.05 µM and the IC50 [2, 4] was < 1 µM.

For `O=C(NO)c1ccc(C2=Nc3ccccc3Oc3cnccc32)cc1` [(Z)-4-(benzo[b]pyrido[4,3-f][1,4]oxazepin-5-yl)-N-hydroxybenzamide], the IC50 ([1]; Table 8) was 0.1 to 1 µM and the IC50 [2, 4] was < 1 µM.

For `O=C(CCCCCON=C1c2ccccc2CCc2ccccc21)NO`, the IC50 ([1]; Table 10) was 0.1 to 1 µM and the IC50 [2, 3] was 5 to 15 µM.

With `O=C(NO)c1ccc(CNC2c3ccccc3CCc3ccccc32)cc1` the IC50 ([1]; Table 10) was < 0.05 µM and the IC50 [2, 3] was 5 to 15 µM.

In the case of `O=C(CCCCCCN1c2ccccc2Oc2ccccc2S1(=O)=O)NO`, the IC50 ([1]; Table 10) is reported as 0.1 to 1 µM and the IC50 [2, 3] is reported as 1 to 5 µM.

`CCCc1cccc2c1Oc1ccccc1N=C2c1ccc(C(=O)NO)cc1` [(Z)—N-hydroxy-4-(4-propyldibenzo[b,f][1,4]oxazepin-11-yl)benzamide] was tested, and the IC50 ([1]; Table 8) was 0.1 to 1 µM and the IC50 [2, 4] was > 15 µM.

Molecule `O=C(CCCCCCCN1C(=O)c2ccccc2Oc2ccccc21)NO` [N-hydroxy-8-(11-oxodibenzo[b,f][1,4]oxazepin-10(11H)-yl)octanamide] has an IC50 ([1]; Table 10) of 0.05 to 0.1 µM and an IC50 [2, 3] of 1 to 5 µM.

With `CN1C(=O)CN=C(c2ccc(C(=O)NO)cc2)c2ccccc21` [(Z)-N-hydroxy-4-(1-methyl-2-oxo-2,3-dihydro-1H-benzo[e][1,4]diazepin-5-yl)benzamide] the IC50 ([1]; Table 10) was 0.1 to 1 µM and the IC50 ([2]; read-out: HDAC Inhibition (IC50 μM) WC mouse cortical neurons, Table 10) was 5 to 15 µM.

For `O=C(NO)c1ccc(C2=Nc3ccc(Cl)cc3Oc3ccccc32)cc1` [(Z)-4-(7-chlorodibenzo[b,f][1,4]oxazepin-11-yl)-N-hydroxybenzamide], the IC50 ([1]; Table 8) was 0.1 to 1 µM and the IC50 [2, 4] was 5 to 15 µM.
